Assay results published in patent publication US6583139B1, “Compounds which inhibit leukocyte adhesion mediated by VLA-4” (priority 1997, dated 2003).
Where a SMILES comes first, the peptide text is derived from it. The star is where a group is joined. Tos = Cc1ccc(S(=O)(=O)*)cc1; tBu = CC(C)(C)*

system: not given; experiment: not given; conditions: not given

| Molecule | melting point |
| --- | --- |
| Cc1ccc(S(=O)(=O)N2CCC[C@H]2C(=O)N[C@@H](Cc2ccc(C(=O)N[C@@H]3Cc4ccccc4C=N3)cc2)C(=O)O)cc1 [Example 52, N-(Toluene-4-sulfonyl)-L-prolyl-L-4[(3S)-3,4-dihydro-isoquinolin-3-yl-aminocarbonyl]-phenylalanine] | 145 to 150 °C |
| Cc1ccc(S(=O)(=O)N2CCC[C@H]2C(=O)N[C@@H](C)C(=O)O)cc1 [Example 16, N-(Toluene-4-sulfonyl)-L-prolyl-L-alanine] (Tos-Pro-Ala-OH) | 160.5 to 162.5 °C |
| Cc1ccc(S(=O)(=O)N[C@@H](CCC(=O)O)C(=O)N[C@@H](Cc2ccc(O)cc2)C(=O)O)cc1 [Example 30, N-(Toluene-4-sulfonyl)-L-glutamyl-L-tyrosine] (Tos-Glu-Tyr-OH) | 173 to 175 °C |
| CC(C)OC(=O)[C@H](Cc1ccc(O)cc1)NC(=O)[C@@H]1CCCN1S(=O)(=O)c1cn(C)cn1 [Example 226, N-(1-Methylimidazol-4-sulfonyl)-L-prolyl-(4-hydroxyl)-L-phenylalanine isopropyl ester] | 159 to 162 °C |

Other lines, results leading:

| melting point | Molecule |
| --- | --- |
| 174 to 176 °C | Cc1ccc(S(=O)(=O)N2CCC[C@H]2C(=O)N[C@@H](CC(=O)O)C(=O)O)cc1 [Example 19, N-(Toluene-4-sulfonyl)-L-prolyl-L-aspartic acid] (Tos-Pro-Asp-OH) |
| 106 to 110 °C | Cc1ccc(S(=O)(=O)N2CCC[C@H]2C(=O)N[C@@H](Cc2ccc(OCCN(Cc3ccccc3)Cc3ccccc3)cc2)C(=O)O)cc1 [Example 45, N-(Toluene-4-sulfonyl)-L-prolyl-L-O-[2-(dibenzylamino)ethyl]-tyrosine] |
| 163 to 165 °C | Cc1ccc(S(=O)(=O)N2CCC[C@H]2C(=O)N[C@@H](Cc2ccc(NC(=O)Nc3ccc(C#N)cc3)cc2)C(=O)O)cc1 [Example 49, N-(Toluene-4-sulfonyl)-L-prolyl-L-4-[3-(4-cyanophenyl)-ureido]-phenylalanine] |

system: Experimental Autoimmune (or Allergic) Encephalomyelitis; experiment: Experimental Autoimmune Encephalomyelitis (EAE) model, motor impairment; format: in vivo; conditions: rats or guinea pigs; treatment from Day 8, bid for five days, SC, PO or IP

| Molecule | active in EAE in vivo assay (delayed the onset of symptoms, e.g. clinical scores no greater than 2 or slowed body weight loss as compared to the control) |
| --- | --- |
| Cc1ccc(S(=O)(=O)N2CCC[C@H]2C(=O)N[C@@H](Cc2ccc(OC(C)(C)C)cc2)C(=O)O)cc1 [Example 10, N-(Toluene-4-sulfonyl)-L-prolyl-4-(O-tert-butyl)-L-tyrosine] (Tos-Pro-Tyr(tBu)-OH) | active |
| N-(Toluene-4-sulfonyl)-L-(5,5-dimethyl) thiaprolyl-L-(N-benzyl)-histidine [Example 27] | active |
